Measured values taken from patent publication US20250115607A1, “PYRIDINE DERIVATIVES” (Hoffmann-La Roche Inc., priority 2022, published 2025).

Legend:
Type in all cases: biochemical
[1] = biological target: SIK1 (Homo sapiens (Human), UniProt P57059); assay: Phosphorylation assay SIK1 (RapidFire mass spectrometry); conditions: 5 nM SIK1, CHK-peptide, ATP, 30 min pre-incubation, 45 min incubation; read-out: SIK1 RF IC50
Procedure: (§1) In the presence of SIK2 (resp. SIK1 or SIK3) and ATP the CHK-peptide ([…] with C-terminal arginine amide modification) were phosphorylated at one of the four feasible serine's. Only one phosphorylation is observed under the assay conditions. 60 nl of each compound dilution series (12 point; dilution factor 3, generally 30 μM to 170 pM) in DMSO were transferred by acoustic dispensing to the assay plate and 30 minutes pre-incubated (ambient temperature) after the addition of 5 μl SIK1 (5 nM) resp. 5 μl SIK2 (0.5 nM) or 7 μl SIK3 (1.5 nM) in assay-buffer (12.5 mM HEPES (pH 7.0), 10 mM magnesium acetate, 0.005% BSA). 10 μM CHK-peptide solution and 5 μl of 100 μM ATP for SIK1 & SIK2 resp. 3 μl for SIK3 in assay-buffer were added and incubated ambient for 45 minutes. 40 μl of 0.125% formic acid in water were added to quench the reaction. RapidFire (RF) Mass Spectrometry was utilized for data generation as described below. The multiple charged species (3-5 charges) for the phosphorylated and non-phosphorylated form measured by MRM (Multiple Reaction Monitoring; API5000 or 6500+) or EIC (Extracted Ion Current; QToF) were summed up and the ratio calculated (sum phosphorylated species/sum all species) for data evaluation. Normalization was performed by Genedata software based on the non-inhibition control DMSO and the commercially available STK inhibitor @1 μM YKL-05-099 (CAS number 1936529-65-5). The results of the assay are expressed in half-maximal inhibitory concentrations (IC50s) and are summarized below in Table 1.
(§2) Samples were aspirated by vacuum for max. 600 ms and loaded to C4-cartridge (Agilent; #G9203A) for 3000 ms@1.5 ml/min with 0.1% formic acid in water. Afterwards samples were transferred to the API5000 (API6500+) or QToF mass spectrometer for 4000 ms@1.25 ml/min with 90% acetonitrile; 10% water; 0.007% TFA; 0.093 formic acid. The cartridge was reconditioned for additional 500 ms with 0.1% formic acid in water.
(§3) All MS analyses using the following MS-setup in MRM mode: Electrospray positive; Ion Spray Voltage: 4000V; Temperature: 550° C.; Collision Gas: 5; Curtain Gas: 15; Gas 1: 40; Gas 2: 42; EP: 10. DP=declustering potential; CE=collision energy; CXP=cell exit potential.
(§4) All MS analyses using the following MS-setup in Mode MS: Dual AJS Electrospray positive; VCap: 3000V; Drying & Sheath gas: 340° C.@81/min; Nebulizer: 60 psig; Nozzle Voltage: 2000V; Fragmentor: 130V; Skimmer: 35V; Oct1 RF Vpp: 700V; Ref masses on@5 spectra/s

[2] = biological target: SIK3 (Homo sapiens (Human), UniProt Q9Y2K2); assay: Phosphorylation assay SIK3 (RapidFire mass spectrometry); conditions: 1.5 nM SIK3, CHK-peptide, ATP, 30 min pre-incubation, 45 min incubation; read-out: SIK3 RF IC50
Procedure: as §1, §2, §3, §4

[3] = biological target: SIK2 (Homo sapiens (Human), UniProt Q9H0K1); assay: Phosphorylation assay SIK2 (RapidFire mass spectrometry); conditions: 0.5 nM SIK2, CHK-peptide, ATP, 30 min pre-incubation, 45 min incubation; read-out: SIK2 RF IC50
Procedure: as §1, §2, §3, §4

Chain of SIK3 (Q9Y2K2 whole entry): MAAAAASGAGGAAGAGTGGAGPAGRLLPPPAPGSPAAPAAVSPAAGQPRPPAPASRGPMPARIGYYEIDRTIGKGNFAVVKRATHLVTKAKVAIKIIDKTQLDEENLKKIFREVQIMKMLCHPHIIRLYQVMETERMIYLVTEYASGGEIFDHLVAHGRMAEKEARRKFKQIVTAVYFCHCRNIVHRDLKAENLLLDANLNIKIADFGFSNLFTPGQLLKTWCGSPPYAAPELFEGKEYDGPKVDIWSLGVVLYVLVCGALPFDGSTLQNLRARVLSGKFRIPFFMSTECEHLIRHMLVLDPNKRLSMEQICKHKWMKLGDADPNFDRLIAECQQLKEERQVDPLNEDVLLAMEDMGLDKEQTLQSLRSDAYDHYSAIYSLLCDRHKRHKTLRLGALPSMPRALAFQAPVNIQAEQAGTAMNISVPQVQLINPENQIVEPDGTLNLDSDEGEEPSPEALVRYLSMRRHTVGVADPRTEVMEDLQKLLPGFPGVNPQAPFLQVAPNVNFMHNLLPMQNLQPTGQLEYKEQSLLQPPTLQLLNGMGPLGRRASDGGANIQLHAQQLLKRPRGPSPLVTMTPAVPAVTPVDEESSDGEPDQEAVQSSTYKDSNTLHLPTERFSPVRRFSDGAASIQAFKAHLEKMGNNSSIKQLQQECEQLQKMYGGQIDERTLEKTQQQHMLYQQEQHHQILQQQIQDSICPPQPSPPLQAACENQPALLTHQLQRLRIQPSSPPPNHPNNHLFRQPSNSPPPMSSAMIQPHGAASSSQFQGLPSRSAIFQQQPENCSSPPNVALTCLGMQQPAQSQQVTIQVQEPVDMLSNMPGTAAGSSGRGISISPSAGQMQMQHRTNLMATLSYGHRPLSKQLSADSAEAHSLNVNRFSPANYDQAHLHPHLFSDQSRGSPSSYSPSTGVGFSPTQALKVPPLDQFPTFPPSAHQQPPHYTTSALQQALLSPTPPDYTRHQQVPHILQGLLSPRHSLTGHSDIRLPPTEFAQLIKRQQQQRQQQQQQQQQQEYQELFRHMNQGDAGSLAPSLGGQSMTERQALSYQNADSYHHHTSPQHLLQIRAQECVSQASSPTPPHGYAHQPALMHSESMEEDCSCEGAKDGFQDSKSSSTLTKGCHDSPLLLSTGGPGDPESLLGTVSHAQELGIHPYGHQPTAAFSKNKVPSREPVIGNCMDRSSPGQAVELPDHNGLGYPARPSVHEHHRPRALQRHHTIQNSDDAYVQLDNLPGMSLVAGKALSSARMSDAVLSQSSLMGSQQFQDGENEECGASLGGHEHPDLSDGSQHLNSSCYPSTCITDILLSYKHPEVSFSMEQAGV
Chain of SIK2 (Q9H0K1 whole entry): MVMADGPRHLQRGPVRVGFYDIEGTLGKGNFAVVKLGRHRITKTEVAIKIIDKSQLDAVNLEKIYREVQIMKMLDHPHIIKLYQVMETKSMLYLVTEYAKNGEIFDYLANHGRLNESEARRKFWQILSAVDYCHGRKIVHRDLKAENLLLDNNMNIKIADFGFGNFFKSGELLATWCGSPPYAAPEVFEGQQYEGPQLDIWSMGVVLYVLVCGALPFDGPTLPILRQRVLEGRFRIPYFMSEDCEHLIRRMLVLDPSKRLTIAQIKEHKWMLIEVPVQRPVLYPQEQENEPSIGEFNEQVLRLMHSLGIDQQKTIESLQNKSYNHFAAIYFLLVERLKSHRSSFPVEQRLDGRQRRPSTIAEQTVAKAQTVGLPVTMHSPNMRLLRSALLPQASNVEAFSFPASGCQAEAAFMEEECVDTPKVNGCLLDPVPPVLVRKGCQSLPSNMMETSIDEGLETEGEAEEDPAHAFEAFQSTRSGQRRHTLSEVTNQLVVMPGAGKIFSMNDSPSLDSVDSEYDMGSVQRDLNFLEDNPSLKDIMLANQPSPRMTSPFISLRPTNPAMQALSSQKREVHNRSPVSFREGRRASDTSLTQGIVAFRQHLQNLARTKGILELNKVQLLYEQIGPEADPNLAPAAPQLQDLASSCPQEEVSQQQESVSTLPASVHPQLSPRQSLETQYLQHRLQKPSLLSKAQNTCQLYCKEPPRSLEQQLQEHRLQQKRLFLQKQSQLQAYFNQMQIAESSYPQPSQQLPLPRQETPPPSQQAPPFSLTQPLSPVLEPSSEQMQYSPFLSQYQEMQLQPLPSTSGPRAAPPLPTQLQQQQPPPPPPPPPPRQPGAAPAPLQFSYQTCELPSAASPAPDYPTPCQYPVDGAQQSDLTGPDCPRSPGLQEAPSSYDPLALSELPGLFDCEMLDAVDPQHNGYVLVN
Chain of SIK1 (P57059 whole entry): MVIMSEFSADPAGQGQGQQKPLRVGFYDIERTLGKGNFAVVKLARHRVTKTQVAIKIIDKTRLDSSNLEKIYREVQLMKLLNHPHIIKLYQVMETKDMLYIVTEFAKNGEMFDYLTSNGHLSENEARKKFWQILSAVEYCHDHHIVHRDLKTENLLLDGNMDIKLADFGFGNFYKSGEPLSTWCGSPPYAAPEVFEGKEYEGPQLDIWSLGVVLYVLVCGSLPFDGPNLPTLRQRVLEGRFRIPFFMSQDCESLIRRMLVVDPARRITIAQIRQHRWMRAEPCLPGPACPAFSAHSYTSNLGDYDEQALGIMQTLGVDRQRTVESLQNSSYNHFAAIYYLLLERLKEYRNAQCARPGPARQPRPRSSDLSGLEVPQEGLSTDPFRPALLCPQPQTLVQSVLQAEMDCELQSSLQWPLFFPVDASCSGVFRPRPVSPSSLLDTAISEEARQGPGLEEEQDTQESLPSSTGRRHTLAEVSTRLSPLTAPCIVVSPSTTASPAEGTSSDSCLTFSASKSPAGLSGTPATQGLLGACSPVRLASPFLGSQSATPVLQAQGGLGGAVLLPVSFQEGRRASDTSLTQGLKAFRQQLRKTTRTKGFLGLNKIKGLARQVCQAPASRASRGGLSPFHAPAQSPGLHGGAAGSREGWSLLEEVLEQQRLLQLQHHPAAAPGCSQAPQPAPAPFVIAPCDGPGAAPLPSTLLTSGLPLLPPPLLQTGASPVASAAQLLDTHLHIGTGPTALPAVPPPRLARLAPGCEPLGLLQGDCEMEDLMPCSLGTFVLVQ

Row | Compound | IC50 [1] | IC50 [2] | IC50 [3]
1 | Cc1ccc(Nc2cc3ncn(-c4ccc(C(C)O)c(-n5nc(C(F)F)cc5C)n4)c3cn2)nn1 (stereo not drawn) [Example 7, 1-[2-[3-(difluoromethyl)-5-methyl-pyrazol-1-yl]-6-[6-[(6-methylpyridazin-3-yl)amino]imidazo[4,5-c]pyridin-3-yl]-3-pyridyl]ethanol] | 879 nM | 7 nM | 16 nM
2 | CC(=O)c1ccc(-n2cnc3cc(N4CCOc5cc(C)nnc54)ncc32)nc1-n1nc(C#N)cc1C [Example 6, 1-[3-Acetyl-6-[6-(3-methyl-6,7-dihydropyridazino[4,3-b][1,4]oxazin-8-yl)imidazo[4,5-c]pyridin-3-yl]-2-pyridyl]-5-methyl-pyrazole-3-carbonitrile] | 17400 nM | 3290 nM | 2540 nM
3 | Cc1ccc(Nc2cc3ncn(-c4ccc(C(C)O)c(-c5cn(CC(F)(F)F)nc5C)n4)c3cn2)nn1 (stereo not drawn) [Example 4, 1-[6-[6-[(6-Methylpyridazin-3-yl)amino]imidazo[4,5-c]pyridin-3-yl]-2-[3-methyl-1-(2,2,2-trifluoroethyl)pyrazol-4-yl]-3-pyridyl]ethanol] | 396 nM | 3 nM | 3 nM
4 | Cc1ccc(Nc2cc3ncn(-c4ccc(C(C)O)c(-n5nc(C#N)cc5C)n4)c3cn2)cn1 (stereo not drawn) [Example 3, 1-[3-(1-Hydroxyethyl)-6-[6-[(6-methyl-3-pyridyl)amino]imidazo[4,5-c]pyridin-3-yl]-2-pyridyl]-5-methyl-pyrazole-3-carbonitrile] | 78 nM | 22 nM | 22 nM
5 | Cc1ccc(Nc2cc3ncn(-c4ccc(C(C)O)c(-n5nc(C#N)cc5C)n4)c3cn2)nn1 (stereo not drawn) [Example 2, 1-[3-(1-Hydroxyethyl)-6-[6-[(6-methylpyridazin-3-yl)amino]imidazo[4,5-c]pyridin-3-yl]-2-pyridyl]-5-methyl-pyrazole-3-carbonitrile] | 366 nM | 3 nM | 5 nM
6 | CC(=O)c1ccc(-n2cnc3cc(Nc4ccc(C)nn4)ncc32)nc1-n1nc(C#N)cc1C [Example 1, 1-[3-Acetyl-6-[6-[(6-methylpyridazin-3-yl)amino]imidazo[4,5-c]pyridin-3-yl]-2-pyridyl]-5-methyl-pyrazole-3-carbonitrile] | 4520 nM | 121 nM | 42 nM
